In patent US9512128B2 (BAYER CROPSCIENCE AG, priority 2012, dated 2016):
Read-outs that look alike come from different tables or passages of the source.

Key:
[1] = system: larvae of the mustard beetle (Phaedon cochleariae); assay: Phaedon cochleariae spray test (PHAECO); assay type: in vivo; details: application rate 500 g/ha, after 7 days, Chinese cabbage leaf discs
Protocol: 2. Phaedon cochleariae Spray Test (PHAECO)
(§1) • Solvents: 78.0 parts by weight of acetone • 1.5 part by weight of dimethylformamide • Emulsifier: 0.5 part by weight of alkylaryl polyglycol ether
(§2) To produce a suitable preparation of active compound, 1 part by weight of active compound is mixed with the stated amounts of solvents and emulsifier, and the concentrate is diluted with emulsifier-containing water to the desired concentration.
After 7 days, the efficacy in % is determined. 100% means that all of the beetle larvae have been killed; 0% means that none of the beetle larvae have been killed.

[2] = system: greenhouse red spider mite (Tetranychus urticae); assay: Tetranychus urticae spray test, OP-resistant (TETRUR); assay type: in vivo; details: after 6 days, bean leaf discs
How it was run: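 Bean leaf discs infested with all stages of an OP-resistant strain are sprayed with compound in acetone/DMF with alkylaryl polyglycol ether emulsifier, diluted in water; % mortality after 6 days (100% = all mites killed).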

[3] = system: southern root-knot nematode (Meloidogyne incognita); assay: Meloidogyne incognita test (MELGIN); assay type: in vivo; details: application rate 20 ppm, after 14 days, lettuce
Protocol: 5. Meloidogyne incognita Test (MELGIN) • Solvent: 125.0 parts by weight of acetone To prepare a suitable active compound preparation, 1 part by weight of active compound is mixed with the stated amount of solvent and the concentrate is diluted with water to the desired concentration. Vessels are filled with sand, active compound solution, an egg/larvae suspension of the southern root-knot nematode (Meloidogyne incognita) and lettuce seeds. The lettuce seeds germinate and the plants develop. On the roots, galls are formed. After 14 days, the nematicidal effect in % is determined by the formation of galls. 100% means that no galls have been found; 0% means that the number of galls on the treated plants corresponds to the untreated control.

[4] = system: cattle ticks (Boophilus microplus); assay: Boophilus microplus injection test (BOOPMI Inj); assay type: in vivo; details: 20 μg/animal, injection into the abdomen, assessed after 7 days
Protocol: 6. Boophilus microplus Injection Test (BOOPMI Inj)
• Solvent: dimethyl sulphoxide
To produce a suitable preparation of active compound, 10 mg of active compound are mixed with 0.5 ml of solvent, and the concentrate is diluted with solvent to the desired concentration.
1 μl of the active compound solution is injected into the abdomen of 5 fed adult female cattle ticks (Boophilus microplus). The animals are transferred into dishes and kept in a climate-controlled room.
The activity is assessed after 7 days by laying of fertile eggs. Eggs whose fertility is not visible from the outside are stored in a climate-controlled cabinet until the larvae hatch after about 42 days. An efficacy of 100% means that none of the ticks has laid any fertile eggs; 0% means that all eggs are fertile.

[5] = system: caterpillars of the armyworm (Spodoptera frugiperda); assay: Spodoptera frugiperda spray test (SPODFR); assay type: in vivo; details: application rate 500 g/ha, after 7 days, maize leaf discs
Protocol: 3. Spodoptera frugiperda Spray Test (SPODFR)
as §1, §2
Leaf discs of maize (Zea mays) are sprayed with an active compound preparation of the desired concentration and, after drying, populated with caterpillars of the armyworm (Spodoptera frugiperda).
After 7 days, the efficacy in % is determined. 100% means that all of the caterpillars have been killed; 0% means that none of the caterpillars have been killed.

[6] = log P by HPLC on reversed-phase columns (C 18), EEC directive 79/831 Annex V.A8; assay type: physicochemical; details: for logP[a]: method [a]; for logP[b]: method [b]; for chromatographic logP: reversed-phase C18 HPLC column
How it was run: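 Measured by reversed-phase C18 HPLC (LC-MS) with a linear 10→95% acetonitrile gradient. Acidic: pH 2.7, 0.1% formic acid. Neutral: pH 7.8, 0.001 M ammonium bicarbonate.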

[7] = pH 2.7, acidic range, pH 2.7, 0.1% aqueous formic acid / acetonitrile, read-out: log P[a]
[8] = pH 2.7, method [a], read-out: logP[a]
[9] = pH 7.8, method [b], read-out: logP[b]
[10] = pH 7.8, neutral range, pH 7.8, 0.001 molar aqueous ammonium bicarbonate / acetonitrile, read-out: log P[b]

| chromatographic logP [6, 7] | chromatographic logP [6, 8] | chromatographic logP [6, 9] | chromatographic logP [6, 10] | SMILES | efficacy in % (beetle larvae killed) [1] [%] | efficacy in % (spider mites killed) ([2]; application rate 500 g/ha) [%] | nematicidal effect in % (formation of galls) [3] [%] | efficacy in % (laying of fertile eggs) [4] [%] | efficacy in % (caterpillars killed) [5] [%] | logP[a] [6] | logP[b] [6] | efficacy in % (spider mites killed) ([2]; application rate 100 g/ha) [%] |
| --- | --- | --- | --- | --- | --- | --- | --- | --- | --- | --- | --- | --- |
|  |  |  |  | Cc1cc(F)c(-n2cnc3cnn(C(C)C)c3c2=O)cc1SCC(F)(F)F [Compound 161] | 83 | 100 | 100 |  |  |  |  |  |
|  |  |  |  | Cc1cc(F)c(-n2cnc3snc(C)c3c2=O)cc1[S+]([O-])CC(F)(F)F (stereo not drawn) [Compound 204] | 83 | 90 | 100 | 100 |  |  |  |  |
|  |  |  |  | Cc1cc(F)c(-n2nnc3snc(C)c3c2=O)cc1[S+]([O-])CC(F)(F)F (stereo not drawn) [Compound 206] | 100 | 100 | 100 |  | 100 |  |  |  |
|  |  |  |  | Cc1cc(F)c(-n2nnc3cnn(C)c3c2=O)cc1[S+]([O-])CC(F)(F)F (stereo not drawn) [Compound 136] | 83 | 100 | 90 |  |  |  |  |  |
|  |  |  |  | Cc1cc(F)c(-n2cnc3cnn(C)c3c2=O)cc1[S+]([O-])CC(F)(F)F (stereo not drawn) [Compound 40] |  | 90 | 100 | 100 |  | 1.82 | 1.81 |  |
|  |  |  |  | Cc1cc(F)c(-n2nnc3snc(C)c3c2=O)cc1SCC(F)(F)F [Compound 205] | 100 | 100 |  |  | 100 |  |  |  |
| 1.73 | 1.73 | 1.69 | 1.69 | Cc1cc(F)c(-n2cnc3c(cnn3C)c2=O)cc1[S+]([O-])CC(F)(F)F (stereo not drawn) [Compound 2, 5-{2-Fluoro-4-methyl-5-[(2,2,2-trifluoroethyl)sulphinyl]phenyl}-1-methyl-1,5-dihydro-4H-pyrazolo[3,4-d]pyrimidin-4-one] | 100 | 100 |  | 100 |  |  |  |  |
|  |  |  |  | Cc1nc2c(=O)n(-c3cc([S+]([O-])CC(F)(F)F)c(C)cc3F)cnc2s1 (stereo not drawn) [Compound 73] |  | 100 | 90 | 100 |  | 1.80 | 1.77 |  |
|  |  |  |  | Cc1cc(F)c(-n2cnc3scnc3c2=O)cc1[S+]([O-])CC(F)(F)F (stereo not drawn) [Compound 61] | 100 | 90 | 90 | 100 |  | 1.57 | 1.56 |  |
|  |  |  |  | Cc1cc(F)c(-n2c(C)nc3cnn(C)c3c2=O)cc1[S+]([O-])CC(F)(F)F (stereo not drawn) [Compound 41] |  | 100 | 90 | 100 |  | 1.90 | 1.88 |  |
|  |  |  |  | Cc1c2c(=O)n(-c3ccc(C(F)(F)F)c([S+]([O-])CC(F)(F)F)c3)cnc2nn1C (stereo not drawn) [Compound 46] | 100 |  | 90 |  | 100 | 2.11 | 2.07 |  |
|  |  |  |  | Cc1cc(F)c(-n2cnc3cnn(C(C)C)c3c2=O)cc1[S+]([O-])CC(F)(F)F (stereo not drawn) [Compound 165] | 100 | 100 | 100 |  |  |  |  |  |
| 2.66 | 2.66 | 2.65 | 2.65 | Cc1cc(F)c(-n2cnc3c(cnn3C)c2=O)cc1SCC(F)(F)F [Compound 1, 5-{2-Fluoro-4-methyl-5-[(2,2,2-trifluoroethyl)sulphanyl]phenyl}-1-methyl-1,5-dihydro-4H-pyrazolo[3,4-d]pyrimidin-4-one] | 100 | 90 |  |  |  |  |  |  |
|  |  |  |  | Cc1cc(F)c(-n2cnc3ccsc3c2=O)cc1[S+]([O-])CC(F)(F)F (stereo not drawn) [Compound 112] | 100 |  | 90 |  |  | 1.96 | 1.95 | 90 |
|  |  |  |  | Cc1cc(C)c([S+]([O-])CC(F)(F)F)cc1-n1cnc2cnn(C)c2c1=O (stereo not drawn) [Compound 134] |  | 100 | 100 | 100 |  |  |  |  |
|  |  |  |  | Cc1cc(F)c(-n2cnc3snc(C(C)(C)C)c3c2=O)cc1[S+]([O-])CC(F)(F)F (stereo not drawn) [Compound 208] | 83 | 100 | 100 |  |  |  |  |  |
| 1.85 | 1.85 | 1.84 | 1.84 | Cc1cc(F)c(-n2c(C)nc3c(cnn3C)c2=O)cc1[S+]([O-])CC(F)(F)F (stereo not drawn) [Compound 15, 5-{2-Fluoro-4-methyl-5-[(2,2,2-trifluoroethyl)sulphinyl]phenyl}-1,6-dimethyl-1,5-dihydro-4H-pyrazolo[3,4-d]pyrimidin-4-one] |  | 90 | 90 | 100 |  |  |  |  |
|  |  |  |  | Cc1ccc(-n2cnc3c(c(C)nn3C)c2=O)cc1[S+]([O-])CC(F)(F)F (racemic) [Compound 33] | 100 | 90 |  |  | 100 | 1.79 | 1.75 |  |
|  |  |  |  | COc1ccc(-n2cnc3sccc3c2=O)cc1[S+]([O-])CC(F)(F)F (stereo not drawn) [Compound 89] | 100 |  | 90 | 100 |  | 1.91 | 1.91 |  |
|  |  |  |  | Cc1nn(C)c2ncn(-c3ccc(Cl)c(SCC(F)(F)F)c3)c(=O)c12 [Compound 36] | 100 |  |  |  | 83 | 2.82 | 2.79 |  |
|  |  |  |  | Cc1cc(F)c(-n2cnc3c(C)nn(C)c3c2=O)cc1[S+]([O-])CC(F)(F)F (stereo not drawn) [Compound 129] |  | 90 | 90 | 100 |  |  |  |  |
|  |  |  |  | Cc1cc(F)c(-n2cnc3sccc3c2=O)cc1[S+]([O-])CC(F)(F)F (stereo not drawn) [Compound 96] | 100 | 100 | 90 |  |  | 2.10 | 2.09 |  |
| 2.14 | 2.14 | 2.1 | 2.1 | Cc1cc(F)c(-n2nnc3c(cnn3C)c2=O)cc1[S+]([O-])CC(F)(F)F (stereo not drawn) [Compound 120, 3-{2-Fluoro-4-methyl-5-[(2,2,2-trifluoroethyl)sulphinyl]phenyl}-7-methyl-3,7-dihydro-4H-pyrazolo[3,4-d][1,2,3]triazin-4-one] | 83 | 90 |  |  |  |  |  |  |
|  |  |  |  | Cc1cc(F)c(-n2cnc3ncsc3c2=O)cc1[S+]([O-])CC(F)(F)F (stereo not drawn) [Compound 79] |  | 100 | 90 | 100 |  | 1.60 | 1.57 |  |
|  |  |  |  | Cc1ccc(-n2cnc3c(cnn3C)c2=O)cc1[S+]([O-])CC(F)(F)F (racemic) [Compound 27] |  | 90 |  | 100 |  | 1.57 | 1.57 |  |
